Measurements taken from patent US12590062B2, “PD-1/PD-L1 inhibitors” (Gilead Sciences, Inc., priority 2017, dated 2026).

How the values were obtained:
[1] = target: PD-1/PD-L1 (Homo sapiens, UniProt Q9NZQ7); experiment: PD-1/PD-L1 biochemical protein-protein interaction assay (ALPHA); format: binding; details: 0.3 nM His tagged PD-L1, 2.5 nM biotinylated Fc-PD-1, 60 minutes at 25° C., read-out: IC50 PD-L1-PD-1 Alpha IC50-mono PD-L1-fcP-D1
Summary of the method: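 IC50 values derive from four-parameter fits of ALPHA signal decrease. Assay: 0.3 nM His-tagged PD-L1 with 2.5 nM biotinylated Fc-PD-1, Hepes pH 7.4 with 0.005% Tween 20 and 0.01% BSA, 60 min at 25° C, then anti-His acceptor and streptavidin donor beads.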

[2] = target: T1, PD-1/PD-L1 interaction (Homo sapiens, UniProt Q9NZQ7); experiment: PD-1/PD-L1 NFAT reporter co-culture assay; format: cell-based; details: Jurkat PD-1 NFAT-luciferase cells co-cultured with aAPC-PD-L1 CHO cells, 6 hrs at 37° C.; read-out: EC50 NFAT Luciferase
T1 construct: expressed in transfected cells; host or cells: CHO cells (aAPC-PD-L1) co-cultured with Jurkat cells overexpressing PD-1 and an NFAT-luciferase reporter
Summary of the method: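 Jurkat cells overexpressing PD-1 with NFAT-driven luciferase were mixed with compound in RPMI 1640/2% FBS and seeded onto overnight-plated CHO aAPC-PD-L1 cells expressing surface anti-CD3 and PD-L1. Co-culture ran 6 h at 37 °C; luminescence read with ONE-Glo; EC50 from four-parameter fit.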

[3] = target: T2, PD-L1 (Homo sapiens, UniProt Q9NZQ7); experiment: PD-L1/PD-L1 dimerization biochemical protein-protein interaction assay (ALPHA); format: binding; details: compound-induced PD-L1 dimerization, head prints '1 nM' (0.5 nM His-tagged PD-L1 and 0.5 nM FLAG-tagged PD-L1), read-out: AC50 PDL1 Dimer Alpha 1 nM
T2 construct: determine if they can specifically dimerize the extracellular domains of PD-L1
Summary of the method: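 After 2 h at 25 °C with compound, His- and FLAG-tagged PD-L1 ECDs (each 0.5 nM final; 25 mM Hepes pH 7.4, 150 mM NaCl) were detected by sequential anti-His acceptor and anti-FLAG donor bead incubations. Dose-response curves fitted to four-parameter equation for AC50.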

T2 sequence (Q9NZQ7 19-238 limits assumed): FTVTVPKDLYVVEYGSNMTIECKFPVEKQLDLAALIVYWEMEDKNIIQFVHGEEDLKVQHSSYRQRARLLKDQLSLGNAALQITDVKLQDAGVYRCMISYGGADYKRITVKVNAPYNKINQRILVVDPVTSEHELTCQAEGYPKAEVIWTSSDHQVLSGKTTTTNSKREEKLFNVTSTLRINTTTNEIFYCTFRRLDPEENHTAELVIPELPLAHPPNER
T2 sequence (Q9NZQ7 19-238 limits assumed): as above
PD-1/PD-L1, sequence (Q9NZQ7 19-238 limits assumed): as above
T1 sequence (Q9NZQ7 19-290): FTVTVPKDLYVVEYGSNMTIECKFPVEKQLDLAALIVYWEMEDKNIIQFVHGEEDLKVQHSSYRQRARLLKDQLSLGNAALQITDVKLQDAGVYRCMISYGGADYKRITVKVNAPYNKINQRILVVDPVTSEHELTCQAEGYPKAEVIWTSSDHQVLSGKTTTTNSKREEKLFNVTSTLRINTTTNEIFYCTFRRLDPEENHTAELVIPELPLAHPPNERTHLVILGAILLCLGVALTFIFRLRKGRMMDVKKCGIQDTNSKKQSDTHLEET

| IC50 [1] [nM] | EC50 [2] [nM] | AC50 [3] [nM] | Compound |
| --- | --- | --- | --- |
| 0.102 | 435 | 130 | Cc1c(COc2cc(OCc3cncc(C#N)c3)c(CNC[C@@H](O)CC(=O)O)cc2Cl)cccc1-c1cccc(-c2cn3cc(CNC[C@@H](O)CC(=O)O)ccc3n2)c1C [Example 394, (S)-4-(((2-(3′-((4-((((S)-3-carboxy-2-hydroxypropyl)amino)methyl)-2-chloro-5-((5-cyanopyridin-3-yl)methoxy)phenoxy)methyl)-2,2′-dimethyl-[1,1′-biphenyl]-3-yl)imidazo[1,2-a]pyridin-6-yl)methyl)amino)-3-hydroxybutanoic acid] |
| 0.217 | 151 | 89.6 | Cc1c(COc2cc(OCc3cncc(C#N)c3)c(CNC[C@@H](O)CC(=O)O)cc2Cl)cccc1-c1cccc(-c2nc3c(C)c(CNC[C@@H](O)CC(=O)O)ccc3s2)c1C [Example 395, (S)-4-(((2-(3′-((4-((((S)-3-carboxy-2-hydroxypropyl)amino)methyl)-2-chloro-5-((5-cyanopyridin-3-yl)methoxy)phenoxy)methyl)-2,2′-dimethyl-[1,1′-biphenyl]-3-yl)-4-methylbenzo[d]thiazol-5-yl)methyl)amino)-3-hydroxybutanoic acid] |
| 0.064 | 105 | 37.9 | Cc1c(-c2nc3ccc(CNC[C@@H](O)CC(=O)O)cc3s2)cccc1-c1cccc2c1CC[C@@H]2Oc1nc(OCc2cncc(C#N)c2)c(CNC[C@@H](O)CC(=O)O)cc1Cl [Example 396, (S)-4-(((2-(3-((S)-1-((5-((((S)-3-carboxy-2-hydroxypropyl)amino)methyl)-3-chloro-6-((5-cyanopyridin-3-yl)methoxy)pyridin-2-yl)oxy)-2,3-dihydro-1H-inden-4-yl)-2-methylphenyl)benzo[d]thiazol-6-yl)methyl)amino)-3-hydroxybutanoic acid] |
| 0.755 | 544 | 226 | COc1cc(-c2cccc(-c3cccc(COc4nc(OC)c(CN5CC6(C5)CN(C(C)=O)C6)cc4Br)c3Cl)c2Cl)ccc1CN1CC2(C1)CN(C(C)=O)C2 [Example 425] |
| 0.397 | 634 | 408 | COc1nc(-c2cccc(-c3cccc(OCc4ccc(CNC[C@@H]5CCC(=O)N5)cc4)c3Cl)c2Cl)ccc1CNC[C@@H]1CCC(=O)N1 [Example 426] |
| 1.37 | 282 | 525 | COc1nc(Oc2cccc(-c3cccc(-c4ccc(CNC[C@@H]5CCC(=O)N5)c(OC)n4)c3Cl)c2Cl)ccc1CNC[C@@H]1CCC(=O)N1 [Example 428] |
| 0.14 | 680 | 240 | COc1nc(C(=O)Nc2cccc(-c3cccc(-c4ccc(CNC[C@@H]5CCC(=O)N5)c(OC)n4)c3Cl)c2Cl)ccc1CNC[C@@H]1CCC(=O)N1 [Example 429] |
| 2.06 | 268 | 290 | COc1nc(-c2cccc(-c3cccc(COc4nc(OC)c(CN5CC6(CNC(=O)C6)C5)cc4Cl)c3Cl)c2Cl)ccc1CNC[C@@H]1CCC(=O)N1 [Example 430] |
| 1.32 | 275 | 249 | COc1nc(OCc2cccc(-c3cccc(-c4ccc(CNC[C@@H]5CCC(=O)N5)cc4)c3Cl)c2Cl)c(Br)cc1CNC[C@@H]1CCC(=O)N1 [Example 431] |
| 1.52 | 289 | 539 | COc1nc(-c2cccc(-c3cccc(COc4nc(OC)c(CNC[C@H]5CCC(=O)N5)cc4Cl)c3Cl)c2Cl)ccc1CN1CC2(CCC(=O)N2)C1 [Example 432] |
| 0.08 | 290 | 167 | Cc1c(COc2cc(OCc3cncc(C#N)c3)c(CNC[C@@H](O)CC(=O)O)cc2Cl)cccc1-c1cccc(-c2ccc(CNC[C@@H](O)CC(=O)O)c(OCC#N)c2)c1C [Example 433] |
| 0.077 | 332 | 106 | COc1nc(-c2cccc(-c3cccc(NC(=O)c4ccc(C5=NCCN5)cn4)c3C)c2Cl)ccc1C1=NCCN1 [Example 434] |
| 0.234 | 316 | 86.2 | COc1nc(OCc2cccc(-c3cccc(-c4ccc5c(c4)C[C@@H](N)C5)c3Cl)c2Cl)c(Br)cc1CN[C@@](C)(CO)C(=O)O [Example 435] |
| 0.064 | 544 | 77.8 | CNC(=O)COc1cc(-c2cccc(-c3cccc(COc4cc(OCc5cncc(C#N)c5)c(CNC[C@@H](O)CC(=O)O)cc4Cl)c3C)c2C)ccc1C1=NCCN1 [Example 436] |
| 1.61 | 476 | 477 | Cc1c(COc2cc(OCc3cncc(C#N)c3)c(CNC[C@@H](O)CC(=O)O)cc2Cl)cccc1-c1cccc(-c2ccc3c(CNC[C@H]4CCC(=O)N4)ccnc3c2)c1C [Example 437] |
| 0.476 | 222 | 168 | Cc1c(COc2cc(OCc3cncc(C#N)c3)c(CNC[C@@H](O)CC(=O)O)cc2Cl)cccc1-c1cccc(Nc2nccc3cc(CNCCO)cnc23)c1C [Example 438] |
| 0.376 | 270 | 154 | Cc1c(COc2cc(OCc3cncc(C#N)c3)c(CNC[C@@H](O)CC(=O)O)cc2Cl)cccc1-c1cccc(-c2ccc3c(c2)CC(NCC2CCC(=O)N2)C3)c1C (stereo partly drawn) [Example 439] |
| 0.115 | 251 | 113 | COc1ccc(-c2cccc(-c3cccc(COc4cc(OCc5cncc(C#N)c5)c(CN[C@@](C)(CO)C(=O)O)cc4Cl)c3C)c2C)cc1CN [Example 440] |
| 0.212 | 260 | 301 | Cc1c(COc2cc(OCc3cncc(C#N)c3)c(CN[C@@](C)(CO)C(=O)O)cc2Cl)cccc1-c1cccc(-c2ccc(OCCN3CCC4(CC3)CC(=O)N4)cc2)c1C [Example 441] |
| 0.697 | 930 | 328 | Cc1c(COc2cc(OCc3cncc(C#N)c3)c(CNC[C@@H](O)CC(=O)O)cc2Cl)cccc1-c1cccc(-c2ccc3c(c2)CC(N2CC(C)(O)C2)C3)c1C (stereo partly drawn) [Example 442] |
| 0.064 | 276 | 154 | Cc1c(COc2cc(OCc3cncc(C#N)c3)c(CNC(C)(CO)C(=O)O)cc2Cl)cccc1-c1cccc(-c2ccc(CN3CCC4(CC3)CNC4=O)cc2)c1C (stereo not drawn) [Example 443] |
| 0.064 | 296 | 133 | Cc1c(COc2cc(OCc3cncc(C#N)c3)c(CNC(C)(CO)C(=O)O)cc2Cl)cccc1-c1cccc(-c2ccc(CN3CCC4(CNC(=O)C4)C3)cc2)c1C (stereo not drawn) [Example 444] |
| 0.719 | 1490 | 266 | Cc1c(COc2cc(OCc3cncc(C#N)c3)c(CN[C@@](C)(CO)C(=O)O)cc2Cl)cccc1-c1cccc(-c2ccc(O[C@@H]3CCNC[C@H]3F)cc2)c1Cl [Example 445] |
| 0.453 | 315 | 458 | Cc1c(COc2cc(OCc3cncc(C#N)c3)c(CNC[C@@H](O)CC(=O)O)cc2Cl)cc(F)cc1-c1cccc(-c2ccc(OCCN3CC[C@@H](O)C3)cc2)c1C [Example 446] |
| 0.618 | 1010 | 903 | Cc1c(COc2cc(OCc3cncc(C#N)c3)c(CNC[C@@H](O)CC(=O)O)cc2Cl)cccc1-c1cccc(-c2ccc3c(c2)CC(=O)N3CCN(C)C)c1C [Example 448] |
| 0.653 | 2570 | 1490 | Cc1c(COc2cc(OCc3cncc(C#N)c3)c(CNC[C@@H](O)CC(=O)O)cc2Cl)cccc1-c1cccc(-n2cc(CN3CCCC3)nn2)c1C [Example 449] |
